Values quoted from earlier work in patent US20250228808A1, “COMPOSITIONS AND METHODS FOR THE TREATMENT OF CORONAVIRUS DISEASES” (priority 2022, published 2025).

What was measured:
[1] = entry into the cell
[2] = Lu S C 2000
[3] = Sansone 2011

Structure (SMILES)	membrane permeability [1]	half-life in the blood [2]	fraction of dose excreted by the kidneys [3]
N[C@@H](CCC(=O)N[C@@H](CS)C(=O)NCC(=O)O)C(=O)O [GSH, glutathione]	membrane-impermeable	seconds to minutes	–
CC(=O)N[C@@H](CS)C(=O)O [NAC, N-acetyl cysteine]	–	–	one-third
